In PMC10101059, “Rational Design of Stapled Antimicrobial Peptides to Enhance Stability and In Vivo Potency against Polymicrobial Sepsis” (Microbiology Spectrum, 2023):
Converted amounts (≈) assume the structure as drawn. Where two headings read alike, the source gives them in different places. Bridge positions count the residues as written; N and C are the ends. Square brackets hold non-standard residues; d marks the D form. Peptide text beside a SMILES is read from it. R5 = C=CCCC[C@@](C)(N)C(=O)O

Legend:
S enterica = assay: Checkerboard microdilution assay (FICI); assay type: cell-based, Salmonella enterica; settings: for TP4-3 and meropenem combined MIC: MIC of each agent in combination, TP4-3 and M
MDR A. baumannii 14B0091 = assay: microbe, parasite or virus in culture; assay type: cell-based, Acinetobacter baumannii
Outline: (§1)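 MIC read as the lowest peptide concentration leaving wells clear after 16 to 20 h at 37 ± 2°C, inoculum 5 × 10^5 CFU/mL. MBC taken from subculture of clear wells on MHA overnight, as lowest concentration without growth. Activity also checked in 50% human serum medium.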

MDR A. baumannii 2982 = assay: microbe, parasite or virus in culture; assay type: cell-based, Acinetobacter baumannii
Outline: as §1

MDR A. baumannii 1702 = assay: microbe, parasite or virus in culture; assay type: cell-based, Acinetobacter baumannii
Outline: as §1

MDR A. baumannii 3618 = assay: microbe, parasite or virus in culture; assay type: cell-based, Acinetobacter baumannii
Outline: as §1

MDR A. baumannii 2962 = assay: microbe, parasite or virus in culture; assay type: cell-based, Acinetobacter baumannii
Outline: as §1

MDR A. baumannii 2997 = assay: microbe, parasite or virus in culture; assay type: cell-based, Acinetobacter baumannii
Outline: as §1

MDR A. baumannii 921 = assay: microbe, parasite or virus in culture; assay type: cell-based, Acinetobacter baumannii
Outline: as §1

MDR A. baumannii 2998 = assay: microbe, parasite or virus in culture; assay type: cell-based, Acinetobacter baumannii; settings: for MBC: read-out: MBC
Outline: as §1

A. baumannii biofilm = assay: Biofilm rupture assay; assay type: cell-based, Acinetobacter baumannii; settings: even at 4× MIC
Method: (ii) Biofilm rupture assay. Fifty μL of A. baumannii bacterial strains suspension cultures (2 × 10^6 CFU/mL) were plated and incubated in a shaking incubator for 24 h. Then, the wells were washed with PBS and treated with 100 μL of peptide/drug at various concentrations. The plates were incubated for 24 h and then washed with PBS. The wells were treated with 100% methanol for 15 min, and the residual solution was washed followed by drying at room temperature. After the wells were dry, 100 μL of 0.02% crystal violet solution was added, followed by incubation for 30 min at room temperature. The wells were then washed with water and dried for an appropriate length of time. Once the wells were dry, 100 μL of 33% acetic acid was added to the wells and they were incubated at room temperature for 1 h. Absorbance was recorded at 595 nm ([55]).

A. baumannii [1] = assay: NPN membrane permeabilization assay; assay type: cell-based, Acinetobacter baumannii; settings: 25 μM, 10^8 CFU/mL
Method: Mid-log-phase bacterial cells (A. baumannii) were resuspended in 10 mM PBS (pH 7.4) to a density of 10^8 CFU/mL. The cell suspension was supplemented with 25 mM glucose followed by 15 min incubation at 37°C. After the incubation, N-phenyl-1-naphthylamine dye was added to a final concentration of 10 μM. Next, 90 μL of bacterial cells was transferred to a 96-well black plate, and fluorescence was recorded for 40 min (excitation/emission: 350/420 nm). […] After this treatment, fluorescence was recorded for an additional 20 min ([53]). Data are presented as fluorescence values as a function of time. Permeabilization of blank- and test compound-treated cells was compared. For the PI membrane permeabilization assay, 10^8 bacterial cells (A. baumannii) were resuspended in MHB containing 20 μg/mL PI. […] Fluorescence was read (excitation/emission: 584/620 nm). Fluorescence values of blank- and compound-treated cells were graphed as a function of time ([54], [55]).

[2] = test system: murine macrophage (RAW 264.7); assay: alamarBlue cytotoxicity assay; assay type: cell-based; settings: at 12.5 μM, 24 h
Method: (i) Cell culture. Human skin keratinocytes (HaCaT), human kidney (HK-2), and RAW 264.7 macrophage cells were obtained from the Bioresource Collection and Research Center (BCRC, Hsinchu, Taiwan). HaCaT and […] macrophage cells were cultured in Dulbecco’s modified Eagle’s medium (DMEM, Thermo Fischer, MA, USA.) supplemented with 10% FBS, penicillin (100 U/mL), and streptomycin (100 μg/mL) at 37°C under 5% CO2. HK-2 cells were cultured in glucose-free Keratinocyte serum-free medium (K-SFM) supplemented with 0.05 mg/mL bovine pituitary extract (BPE), 5 ng/mL EGF, 100 U/mL penicillin, and […] streptomycin at 37°C in 5% CO2 ([49]).
In vitro toxicity assay. The cytotoxicity of TP4-3 was evaluated by an alamarBlue assay. HaCaT, HK-2, and RAW 264.7 macrophage cells were seeded at densities of 1 × 10^4 cells/well in 96-well cell plates and treated with the indicated concentrations of TP4 and TP4-3 for 24 h (0.78 to 100 μM). Cells treated with 0.1% Triton X-100 and culture medium served as negative and positive-control groups, respectively. After incubation, the cells were washed and incubated for 2 h at 37°C with 90 μL Dulbecco’s modified Eagle medium (DMEM) containing 10 μL alamarBlue reagent. Fluorescence was recorded using a Spectra Max i3 Multi-Mode detection platform (Molecular Devices, San Jose, CA) to measure cell viability ([50], [51]).

A. baumannii [3] = assay: DiBAC4(3) membrane depolarization assay; assay type: cell-based, Acinetobacter baumannii; settings: compared to the blank control
Method: Mid-log-phase A. baumannii bacterial cells were suspended in 10 mM PBS (pH 7.4) at a density of 10^8 CFU/mL. The cell suspension was then supplemented with 25 mM glucose, followed by 15 min incubation at 37°C. Then, the cell suspension was mixed with 500 nM DiBAC4(3) and incubated for 50 min. After incubation, 90 μL of the cell suspension was transferred to a 96-well plate, and fluorescence was recorded (excitation/emission: 480/520 nm) until the signal stabilized (~40 min). […] Data for blank- and compound-treated groups were compared by plotting fluorescence as function of time ([56]).

[4] = Acinetobacter baumannii, MHB medium
[5] = HS, MH medium containing 50% human serum
[6] = Acinetobacter baumannii, MHB medium, read-out: MBC
[7] = Acinetobacter baumannii, MHB medium, read-out: MIC
[8] = HS, MH medium containing 50% human serum, read-out: MBC
[9] = HS, MH medium containing 50% human serum, read-out: MIC

C[C@@H](O)[C@H]1C(=O)N2C(C(=O)O)=C(S[C@@H]3CN[C@H](C(=O)N(C)C)C3)[C@H](C)[C@H]12 [Meropenem]
TP4-3 and meropenem combined MIC (S enterica): 0.19 µM
MIC (S enterica; Salmonella enterica, read-out: Single drug treatment MIC): 6.25 µM
MBC (MDR A. baumannii 14B0091; [4]): > 25 µM
MIC (MDR A. baumannii 14B0091; [4]): > 25 µM
MBC (MDR A. baumannii 14B0091; [5]): >25 µM
MIC (MDR A. baumannii 14B0091; [5]): >25 µM
MBC (MDR A. baumannii 2982; [4]): > 25 µM
MIC (MDR A. baumannii 2982; [4]): > 25 µM
MBC (MDR A. baumannii 2982; [5]): >25 µM
MIC (MDR A. baumannii 2982; [5]): >25 µM
MBC (MDR A. baumannii 1702; [6]): > 25 µM
MIC (MDR A. baumannii 1702; [7]): > 25 µM
MBC (MDR A. baumannii 1702; [8]): >25 µM
MIC (MDR A. baumannii 1702; [9]): >25 µM
MBC (MDR A. baumannii 3618; [4]): > 25 µM
MIC (MDR A. baumannii 3618; [4]): > 25 µM
MBC (MDR A. baumannii 3618; [5]): >25 µM
MIC (MDR A. baumannii 3618; [5]): >25 µM
MBC (MDR A. baumannii 2962; [4]): > 25 µM
MIC (MDR A. baumannii 2962; [4]): > 25 µM
MBC (MDR A. baumannii 2962; [5]): >25 µM
MIC (MDR A. baumannii 2962; [5]): >25 µM
MBC (MDR A. baumannii 2997; [6]): > 25 µM
MIC (MDR A. baumannii 2997; [7]): > 25 µM
MBC (MDR A. baumannii 2997; [8]): >25 µM
MIC (MDR A. baumannii 2997; [9]): >25 µM
MBC (MDR A. baumannii 921; [4]): > 25 µM
MIC (MDR A. baumannii 921; [4]): > 25 µM
MBC (MDR A. baumannii 921; [5]): >25 µM
MIC (MDR A. baumannii 921; [5]): >25 µM
MIC (MDR A. baumannii 2998; [4]): > 25 µM
MBC (MDR A. baumannii 2998; [4]): > 25 µM
MIC (MDR A. baumannii 2998; [5]): >25 µM
MBC (MDR A. baumannii 2998; [5]): >25 µM
mature biofilm rupture (A. baumannii biofilm): minor potential for causing biofilm rupture

CC[C@H](C)[C@H](NC(=O)[C@@H](NC(=O)[C@@H](N)Cc1ccccc1)[C@@H](C)CC)C(=O)N[C@]1(C)CCCC=CCCC[C@](C)(C(=O)NCC(=O)N[C@@H](CC(C)C)C(=O)N[C@@H](Cc2ccccc2)C(=O)N[C@@H](CCCCN)C(=O)N[C@@H](CCCCN)C(=O)N[C@@H](CCCCN)C(=O)N[C@@H](C)C(=O)NCC(=O)N[C@@H](C)C(=O)N[C@]2(C)CCCC=CCCC[C@](C)(C(=O)N[C@H](C(=O)N[C@@H](CCCCN)C(=O)N[C@@H](CCCCN)C(=O)O)[C@@H](C)CC)NC(=O)[C@H](CCCCN)NC(=O)[C@H](CCCCN)NC(=O)[C@H](CCCCN)NC2=O)NC(=O)[C@H](CO)NC(=O)[C@H](CCCCN)NC(=O)[C@H](CCCCN)NC1=O [TP4-3] (H-FII[R5]KKS[R5]GLFKKKAGA[R5]KKK[R5]IKK-OH; staple 4-8, 18-22; N-terminus and C-terminus assumed)
TP4-3 and meropenem combined MIC (S enterica): 0.39 µM
MBC (MDR A. baumannii 14B0091; MDR 14B0091): 3.13 µM (≈ 9.05 µg/mL)
MIC (MDR A. baumannii 14B0091; MDR 14B0091): 3.13 µM (≈ 9.05 µg/mL)
MBC (MDR A. baumannii 2982; MDR 2982): 6.25 µM (≈ 18.1 µg/mL)
MIC (MDR A. baumannii 2982; MDR 2982): 6.25 µM (≈ 18.1 µg/mL)
MBC (MDR A. baumannii 1702; MDR 1702): 3.13 to 6.25 µM
MIC (MDR A. baumannii 1702; MDR 1702): 3.13 to 6.25 µM
MBC (MDR A. baumannii 3618; MDR 3618): 12.5 µM (≈ 36.1 µg/mL)
MBC (MDR A. baumannii 2962; MDR 2962): 12.5 µM (≈ 36.1 µg/mL)
MIC (MDR A. baumannii 2962; MDR 2962): 6.25 µM (≈ 18.1 µg/mL)
MBC (MDR A. baumannii 2997; MDR 2997): 3.13 to 6.25 µM
MIC (MDR A. baumannii 2997; MDR 2997): 3.13 to 6.25 µM
MBC (MDR A. baumannii 921; MDR 921): 6.25 µM (≈ 18.1 µg/mL)
MIC (MDR A. baumannii 921; MDR 921): 6.25 µM (≈ 18.1 µg/mL)
MBC (MDR A. baumannii 2998; MDR 2998): 12.5 µM (≈ 36.1 µg/mL)
NPN fluorescence signal vs controls (A. baumannii [1]): ~4 fold
mature biofilm rupture (A. baumannii biofilm): minor potential for causing biofilm rupture
cell death [2]: < 10%
DiBAC4(3) fluorescence signal (membrane depolarization) (A. baumannii [3]): substantial rise in the fluorescence signal
